This assay concerns BDF1 mice, P388 leukemia ip, median survival T/C. The experiment in a line: NCI In Vivo Anticancer Drug Screen. Data for tumor model P388 Leukemia (intraperitoneal) in B6D2F1 (BDF1) mice. The following applies: endpoint: median survival time, higher = longer survival. The essentials:
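In tumour-bearing mice, survival after compound treatment is set against the vehicle group and given as a quotient.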

[1] abbreviates: dose: 100.0 mg/kg/injection, schedule: Q04DX003 (ip), vehicle: saline with Tween-80.
[2] abbreviates: dose: 200.0 mg/kg/injection, schedule: Q04DX003 (ip), vehicle: saline with Tween-80.
[3] abbreviates: dose: 400.0 mg/kg/injection, schedule: Q04DX003 (ip), vehicle: saline with Tween-80.
Where [4] appears, read: dose: 25.0 mg/kg/injection, schedule: Q04DX003 (ip), vehicle: saline with Tween-80.
Setting [5] is: dose: 50.0 mg/kg/injection, schedule: Q04DX003 (ip), vehicle: saline with Tween-80.
The mark [6] stands for this setting: dose: 12.5 mg/kg/injection, schedule: Q04DX003 (ip), vehicle: saline with Tween-80.
Where [7] appears, read: dose: 100.0 mg/kg/injection, schedule: Q04DX003 (ip), vehicle: Klucel (hydroxypropylcellulose) (HPC).
[8] abbreviates: dose: 200.0 mg/kg/injection, schedule: Q04DX003 (ip), vehicle: Klucel (hydroxypropylcellulose) (HPC).
The mark [9] stands for this setting: dose: 400.0 mg/kg/injection, schedule: Q04DX003 (ip), vehicle: Klucel (hydroxypropylcellulose) (HPC).
Setting [10] is: dose: 100.0 mg/kg/injection, schedule: Q01DX009 (ip), vehicle: saline with Tween-80.
[11] abbreviates: dose: 200.0 mg/kg/injection, schedule: Q01DX009 (ip), vehicle: saline with Tween-80.
[12] abbreviates: dose: 400.0 mg/kg/injection, schedule: Q01DX009 (ip), vehicle: saline with Tween-80.
The mark [13] stands for this setting: dose: 50.0 mg/kg/injection, schedule: Q01DX009 (ip), vehicle: saline with Tween-80.
Where [14] appears, read: dose: 6.25 mg/kg/injection, schedule: Q01DX009 (ip), vehicle: saline with Tween-80.
[15] abbreviates: dose: 12.5 mg/kg/injection, schedule: Q01DX009 (ip), vehicle: saline with Tween-80.
Setting [16] is: dose: 25.0 mg/kg/injection, schedule: Q01DX009 (ip), vehicle: saline with Tween-80.

Values joined by “and” are separate entries in the source; they are usually repeats but may differ in a detail not shown here. Equal values may be shown once. Inconclusive results and toxic doses are left out.

With `CC(=O)[O][Hg][c]1s[c]([Hg][O]C(C)=O)[c]([Hg][O]C(C)=O)[c]1[Hg][O]C(C)=O`, the T/C is 101 % of control (dose: 1.0 mg/kg/injection, schedule: Q01DX009 (ip), vehicle: Klucel (hydroxypropylcellulose) (HPC)); 100 % of control (dose: 2.0 mg/kg/injection, schedule: Q01DX009 (ip), vehicle: Klucel (hydroxypropylcellulose) (HPC)); 118 % of control (dose: 2.6 mg/kg/injection, schedule: Q01DX009 (ip), vehicle: saline); 95 % of control (dose: 3.8 mg/kg/injection, schedule: Q04DX003 (ip), vehicle: saline); 102 % of control (dose: 4.0 mg/kg/injection, schedule: Q01DX009 (ip), vehicle: Klucel (hydroxypropylcellulose) (HPC)); 118 % of control (dose: 4.0 mg/kg/injection, schedule: Q01DX009 (ip), vehicle: saline). Moreover, the T/C runs as follows: (dose: 6.0 mg/kg/injection, schedule: Q01DX009 (ip), vehicle: Klucel (hydroxypropylcellulose) (HPC)) 101 % of control; (dose: 6.0 mg/kg/injection, schedule: Q01DX009 (ip), vehicle: saline) 118 % of control; (dose: 7.5 mg/kg/injection, schedule: Q04DX003 (ip), vehicle: saline) 100 % of control; (dose: 9.0 mg/kg/injection, schedule: Q01DX009 (ip), vehicle: Klucel (hydroxypropylcellulose) (HPC)) 103 % of control; (dose: 9.0 mg/kg/injection, schedule: Q01DX009 (ip), vehicle: saline) 118 % of control.
With `CNC(=O)c1ccc(C(=O)NC)cc1`, the T/C was 100 % of control under setting [1], 100 % of control under setting [2] and 109 % of control under setting [3].
Turning to `CCCCCCCCCCCCCCCC(=O)OCCCCCCCCCC`, the T/C is, setting by setting: under setting [4], 100 % of control; under setting [5], 100 % of control; under setting [1], 100 % of control.
Take `COc1ccc2c(c1)NC(=O)C2(C)SC` (centres undefined): the T/C is 103 % of control under setting [6], 97 % of control under setting [4] and 106 % of control under setting [5].
Take `Cc1ccc(C2(C(=O)O)CCCCC2)cc1`: the T/C is, setting by setting: (dose: 100.0 mg/kg/injection, schedule: Q01DX009 (ip), vehicle: Klucel (hydroxypropylcellulose) (HPC)) 100 % of control; under setting [7], 109 % of control; (dose: 200.0 mg/kg/injection, schedule: Q01DX009 (ip), vehicle: Klucel (hydroxypropylcellulose) (HPC)) 92 % of control; under setting [8], 104 % of control; under setting [9], 100 % of control.
Consider `O=C(O)Cn1c(C(F)(F)F)nc2nc(Cl)c(Cl)nc21`, for which the T/C is 90 % of control under setting [10], 90 % of control under setting [11] and 100 % of control under setting [12].
As to `CS(=O)(=O)OCC(O)C(O)COS(C)(=O)=O` (centres undefined), the T/C (dose: 50.0 mg/kg/injection, schedule: Q01DX010 (ip), vehicle: saline) is 109 % of control; the T/C under setting [10] is 91 % of control; the T/C (dose: 100.0 mg/kg/injection, schedule: Q01DX010 (ip), vehicle: saline) was 109 % of control; the T/C under setting [11] is 100 % of control; the T/C (dose: 200.0 mg/kg/injection, schedule: Q01DX010 (ip), vehicle: saline) was 100 % of control; the T/C under setting [12] is 87 % of control. For the same compound, the T/C by setting is: (dose: 400.0 mg/kg/injection, schedule: Q01DX010 (ip), vehicle: saline) 209 % of control; (dose: 800.0 mg/kg/injection, schedule: Q01DX010 (ip), vehicle: saline) 163 % of control.
In the case of `O=C(C1=Cc2ccccc2OC1)N1CCN(C(=O)C2=Cc3ccccc3OC2)CC1`, the T/C under setting [1] was 91 % of control, the T/C under setting [2] was 91 % of control and the T/C under setting [3] was 86 % of control.
As to `CCOC(=O)C1CC1c1ccccc1` (centres undefined), the T/C is, setting by setting: under setting [13], 110 % of control; under setting [10], 115 % of control and 121 % of control; under setting [11], 119 % of control; under setting [12], 112 % of control.
Regarding `NNC(=O)c1ccc(Cl)c(Cl)c1`, the T/C is 113 % of control under setting [14]; 86 % of control under setting [15]; 98 % of control under setting [6]; 89 % of control under setting [16]; 107 % of control under setting [4]; 104 % of control under setting [13]. Moreover, the T/C is, setting by setting: under setting [5], 107 % of control; (dose: 100.0 mg/kg/injection, schedule: Q01DX001 (ip), vehicle: saline sonified) 91 % of control; under setting [10], 97 % of control; under setting [1], 107 % of control; (dose: 200.0 mg/kg/injection, schedule: Q01DX001 (ip), vehicle: saline sonified) 100 % of control; under setting [2], 107 % of control.
As to `Oc1ccc(OCc2ccccc2)cc1`, the T/C runs as follows: (dose: 100.0 mg/kg/injection, schedule: Q04DX003 (ip), vehicle: other) 100 % of control; (dose: 200.0 mg/kg/injection, schedule: Q04DX003 (ip), vehicle: other) 104 % of control; (dose: 400.0 mg/kg/injection, schedule: Q04DX003 (ip), vehicle: other) 100 % of control.
Regarding `Cn1c(=O)c2nc(-c3ccc(Cl)c(Cl)c3)c(-c3ccc(Cl)c(Cl)c3)nc2n(C)c1=O`, the T/C was 100 % of control (dose: 3.13 mg/kg/injection, schedule: Q01DX001 (ip), vehicle: saline with Tween-80); 101 % of control (dose: 6.25 mg/kg/injection, schedule: Q01DX001 (ip), vehicle: saline with Tween-80); 99 % of control (dose: 12.5 mg/kg/injection, schedule: Q01DX001 (ip), vehicle: saline with Tween-80); 90 % of control and 101 % of control (dose: 25.0 mg/kg/injection, schedule: Q01DX001 (ip), vehicle: saline with Tween-80); 107 % of control (dose: 50.0 mg/kg/injection, schedule: Q01DX001 (ip), vehicle: saline with Tween-80); 87 % of control (dose: 100.0 mg/kg/injection, schedule: Q01DX001 (ip), vehicle: saline with Tween-80). Also, the T/C (dose: 400.0 mg/kg/injection, schedule: Q01DX001 (ip), vehicle: saline with Tween-80) is 96 % of control.
On to `O=C1C=CC(=O)c2c(O)c(CO)c(CO)c(O)c21`, for which the T/C runs as follows: (dose: 0.19 mg/kg/injection, schedule: Q01DX009 (ip), vehicle: water) 100 % of control; (dose: 0.39 mg/kg/injection, schedule: Q01DX009 (ip), vehicle: water) 108 % of control; (dose: 0.78 mg/kg/injection, schedule: Q01DX009 (ip), vehicle: water) 115 % of control; (dose: 1.56 mg/kg/injection, schedule: Q01DX009 (ip), vehicle: water) 102 % of control; (dose: 3.12 mg/kg/injection, schedule: Q01DX009 (ip), vehicle: water) 108 % of control.
For `Cc1noc(/N=C/c2ccccc2)c1C`, the T/C reads like this: (dose: 100.0 mg/kg/injection, schedule: Q01DX001 (ip), vehicle: Klucel (hydroxypropylcellulose) (HPC)) 108 % of control; under setting [7], 95 % of control; (dose: 200.0 mg/kg/injection, schedule: Q01DX001 (ip), vehicle: Klucel (hydroxypropylcellulose) (HPC)) 104 % of control; under setting [8], 100 % of control and 104 % of control; (dose: 400.0 mg/kg/injection, schedule: Q01DX001 (ip), vehicle: Klucel (hydroxypropylcellulose) (HPC)) 112 % of control; under setting [9], 91 % of control and 100 % of control.
As for `Cc1ccc(S(=O)(=O)/C=C(/I)c2ccccc2)cc1`, the T/C by setting is: under setting [14], 124 % of control; under setting [15], 106 % of control; under setting [16], 106 % of control; under setting [13], 92 % of control and 109 % of control; under setting [10], 109 % of control; under setting [1], 114 % of control. Besides, the T/C reads like this: under setting [11], 106 % of control; under setting [2], 106 % of control; under setting [12], 100 % of control; under setting [3], 97 % of control.
Turning to `CC1(C)Oc2cc3oc(C(=O)O)cc(=O)c3cc2-c2ccc(O)cc21`, the T/C by setting is: (dose: 100.0 mg/kg/injection, schedule: Q04DX002 (ip), vehicle: saline with Tween-80) 119 % of control; (dose: 200.0 mg/kg/injection, schedule: Q04DX002 (ip), vehicle: saline with Tween-80) 107 % of control; (dose: 400.0 mg/kg/injection, schedule: Q04DX002 (ip), vehicle: saline with Tween-80) 108 % of control.

These data come from PubChem BioAssay AID328 (DTP/NCI, 2004).
